Molecular target: T1, tyrosinekinase du récepteur de l'EGF (Epidermal Growth Factor) (Homo sapiens, UniProt P00533)
T1 construct: On utilise des membranes de cellules A431 (ATCC CRL 1555) comme source de récepteurs de l'EGF; host or cells: A431 cell membranes
Test: Inhibition of EGF receptor tyrosine kinase (A431 cell membranes, 32P incorporation into poly(Glu, Ala, Tyr 6:3:1))
Type: biochemical
Conditions: A431 cell membranes (ATCC CRL 1555); samples containing substrate poly(Glu, Ala, Tyr 6:3:1) and EGF; 15 minutes at 30°C; dilution series starting at 51 microgrammes/ml; read-out: CI₅₀ (converted)
Procedure: Mesure de l'inhibition de la tyrosinekinase du récepteur de l'EGF (Epidermal Growth Factor).
Cette lignée cellulaire exprime à sa surface un grand nombre de récepteur de l'EGF qui possèdent une activité tyrosinekinase.
Ces cellules sont préincubées avec ou sans EGF (1000 nM) pendant 15 minutes et ajoutées au tampon HEPES (acide N-2-hydroxyéthyl-piperazine N'-2-éthanesulfonique) correspondant (avec ou sans EGP) et contenant des ions Mg²⁺ (10 mM) et Mn²⁺ (2 mM) 0,2 % de triton X-100, de l'orthovanadate de sodium (20 micromoles) et l'inhibiteur.
Des échantillons contenant ou ne contenant pas le substrat poly(Glu, Ala, Tyr 6 : 3 : 1) sont préparés. On initie la réaction par addition de [gamma³²P] ATP (32 micromoles). Après incubation pendant 15 minutes à 30°C les échantillons sont précipités à l'aide d'acide […] à 10 %, filtrés sur membrane Millipore ® et le ³²P incorporé est mesuré avec un compteur de scintillation liquide.

T1 sequence (P00533 25-1210): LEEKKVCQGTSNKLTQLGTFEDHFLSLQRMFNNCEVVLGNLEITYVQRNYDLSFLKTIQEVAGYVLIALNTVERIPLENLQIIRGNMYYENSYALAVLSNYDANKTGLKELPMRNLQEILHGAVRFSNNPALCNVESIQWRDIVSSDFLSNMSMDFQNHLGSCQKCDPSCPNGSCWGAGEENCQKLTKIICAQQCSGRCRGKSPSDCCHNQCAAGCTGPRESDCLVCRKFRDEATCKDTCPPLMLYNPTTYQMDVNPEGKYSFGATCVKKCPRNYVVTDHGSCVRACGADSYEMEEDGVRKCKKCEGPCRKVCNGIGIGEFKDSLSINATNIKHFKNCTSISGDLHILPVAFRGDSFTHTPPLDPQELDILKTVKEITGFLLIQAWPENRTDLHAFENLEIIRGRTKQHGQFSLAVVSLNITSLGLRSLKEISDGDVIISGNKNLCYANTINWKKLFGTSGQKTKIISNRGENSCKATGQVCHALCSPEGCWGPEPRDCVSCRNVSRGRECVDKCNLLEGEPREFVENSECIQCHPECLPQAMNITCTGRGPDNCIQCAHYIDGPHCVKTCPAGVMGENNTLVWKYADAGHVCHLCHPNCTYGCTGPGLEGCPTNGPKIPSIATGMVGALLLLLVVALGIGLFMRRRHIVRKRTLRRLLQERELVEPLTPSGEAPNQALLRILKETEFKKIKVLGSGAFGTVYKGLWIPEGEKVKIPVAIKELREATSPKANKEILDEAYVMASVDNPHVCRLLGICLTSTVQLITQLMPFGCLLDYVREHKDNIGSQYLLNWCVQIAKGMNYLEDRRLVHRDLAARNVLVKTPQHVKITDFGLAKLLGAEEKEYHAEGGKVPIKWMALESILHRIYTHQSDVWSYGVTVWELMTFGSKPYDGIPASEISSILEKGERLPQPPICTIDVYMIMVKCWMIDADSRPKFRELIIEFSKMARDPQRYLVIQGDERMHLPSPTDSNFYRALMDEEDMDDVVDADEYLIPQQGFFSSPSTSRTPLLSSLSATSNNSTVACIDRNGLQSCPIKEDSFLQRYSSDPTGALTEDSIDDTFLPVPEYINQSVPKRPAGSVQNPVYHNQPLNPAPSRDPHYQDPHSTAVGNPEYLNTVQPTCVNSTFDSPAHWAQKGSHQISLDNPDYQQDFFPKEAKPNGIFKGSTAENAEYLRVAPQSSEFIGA

| IC50 [µM] | SMILES |
| --- | --- |
| 8.06 | Oc1ccc2[nH]c3c(c2c1)CCNC3Cc1ccc(O)c(O)c1 (stereo not drawn) [Produit B, 1,2-benzènediol 4-(2,3,4,9-tétrahydro 6-hydroxy-1H-pyrido[3,4-b]indol 1-yl) méthyl] |
| 13.3 | Oc1cc2c(cc1O)CC(Cc1ccccc1)NC2 (stereo not drawn) [Produit de l'exemple 1, Bromhydrate du 3-phénylméthyl 1,2,3,4-tétrahydro, isoquinoléïne 6,7-diol] |

| SMILES | IC50 [µM] |
| --- | --- |
| Oc1ccc(CC2NCCc3cc(O)c(O)cc32)cc1O (stereo not drawn) [Produit A, 1-[(3,4-dihydroxyphényl)méthyl] 1,2,3,4-tétrahydro isoquinoléïne 6,7-diol] | 3.83 |
